One test concerns HAS2 expression by a vitreous cell line. Description: HAS2 mRNA expression by RT-PCR after cytokine stimulation of the vitreous cell line. The following applies: cell line transfected with Smad2, 3 or 4; FIG. 5. Type of test: cell-based, swine. On the procedure:
Next, expression of hyaluronic acid synthase (HAS)2 and the effect of PDGF-BB and/or TGF-β1 on the hyaluronic acid production in the established vitreous cell line were examined. The expression was observed by RT-PCR.
To be specific, when the vitreous cell line was 50-60% confluent, the medium of the cells was exchanged with DMEM containing 1% bovine serum and, after culturing for 24 hr, the cells were stimulated with TGF-β1 (10 ng/ml) and PDGF-BB (10 ng/ml). In a part of the examination, Smad2, 3 or 4 was transfected into the cell line after 6 hr from the medium exchange. The cells and culture supernatant were recovered at 3, 6, 24 and 48 hr after the cytokine stimulation (FIG. 2). Total RNA was extracted from the cells, cDNA was synthesized, and RT-PCR was performed using primers specific to HAS2. Using Roche FastStart High Fidelity PCR System, PCR was performed on Gene Amp PCR System 9700 (Applied Biosystems). The PCR conditions were as follows:
95° C. 2 min.→(95° C. 30 seconds→X° C. 30 seconds→72° C. […])×Y cycle→72° C. 7 min
X=60, Y=25 . . . beta-Actin
Consider “TGF-β1: cytokine used to stimulate the vitreous cell line (10 ng/ml)”, for which the “expression of HAS2 under forced expression of Smad2, 3 or 4” value was “resulted in the expression of HAS2”.

The next test deals with VEGF mRNA expression by a vitreous cell line. The experiment in a line: VEGF mRNA expression by RT-PCR after cytokine stimulation of the vitreous cell line. Type of test: cell-based, swine. The following applies: cytokine 10 ng/ml, up to 48 hours; FIG. 7, FIG. 9. On the procedure:
Changes of VEGF expression due to cytokine stimulation in the vitreous cell line established in Example 1 were examined. The expression of VEGF at an mRNA level was examined by RT-PCR, and the expression at a protein level was examined by ELISA.
To be specific, when the vitreous cell line reached 50-60% confluent, the medium for the cells was exchanged with DMEM containing 1% bovine serum. […] Total RNA was extracted from the stimulated cells, cDNA was synthesized, and PCR was conducted using VEGF primers. The medium of the stimulated cells was used for ELISA. Since an appropriate antibody to swine VEGF is not available, VEGF protein concentration was measured by ELISA using an antibody to human VEGF, and the result was calculated as a reference value led from a human VEGF standard product. PCR was conducted using TOYOBO KOD plus kit and Gene PCR System 9700 (Applied Biosystem). The conditions of PCR were as follows:
95° C. 120 seconds; (95° C. 15 seconds, 62° C. 30 seconds, 68° C. 30 seconds)×30 cycles; 68° C. 90 seconds. ELISA was entrusted to Mitsubishi BCL.
“IL-1β: cytokine used to stimulate the vitreous cell line (10 ng/ml)”: the “VEGF mRNA expression level” value is listed as “a significant change in the VEGF mRNA expression level was not observed”.
In the case of “IL-6: cytokine named among other cytokines used for stimulation”, the “VEGF mRNA expression level” value is given as “a significant change in the VEGF mRNA expression level was not observed”.
On to “PDGF-AA: cytokine used to stimulate the vitreous cell line (10 ng/ml)”, for which the “VEGF mRNA expression level” value is “a significant change in the VEGF mRNA expression level was not observed”.
In the case of TGFβ, the “VEGF mRNA expression level” value was “a significant change in the VEGF mRNA expression level was not observed”.
TNFα: the “VEGF mRNA expression level” value is “a significant change in the VEGF mRNA expression level was not observed”.

The record behind these values is patent US20090068744A1, “VITREOUS CELL LINE” (SENJU PHARMACEUTICAL CO., LTD., priority 2006, published 2009).
